Measurements published in US20230303549A1, “SUBSTITUTED HETEROARYLOXYPYRIDINES, THE SALTS THEREOF AND THEIR USE AS HERBICIDAL AGENTS” (Bayer Aktiengesellschaft, priority 2020, published 2023).

Key:
Assay type in all cases: in vivo
[1] = tested on: Veronica persica (VERPE); experiment: Pre-emergence herbicide efficacy at 320 g/ha, greenhouse pot test; conditions: visual scoring vs untreated control after about 3 weeks
In short: (§1)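 Sandy loam pots held seeds of a single weed species each. The test compound was sprayed pre-emergence in 600 L/ha water with 0.5% additive. Effect was rated visually in % against untreated controls after ~3 weeks.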

[2] = tested on: Setaria viridis (SETVI); experiment: as above; conditions: visual scoring vs untreated control after about 3 weeks
In short: as §1

[3] = tested on: Amaranthus retroflexus (AMARE); experiment: as above; conditions: visual scoring vs untreated control after about 3 weeks
In short: as §1

[4] = tested on: Digitaria sanguinalis (DIGSA); experiment: as above; conditions: visual scoring vs untreated control after about 3 weeks
In short: as §1

[5] = tested on: Poa annua (POAAN); experiment: as above; conditions: visual scoring vs untreated control after about 3 weeks
In short: as §1

[6] = tested on: Alopecurus myosuroides (ALOMY); experiment: as above; conditions: visual scoring vs untreated control after about 3 weeks
In short: as §1

[7] = tested on: Stellaria media (STEME); experiment: as above; conditions: visual scoring vs untreated control after about 3 weeks
In short: as §1

[8] = tested on: Matricaria inodora (MATIN); experiment: as above; conditions: visual scoring vs untreated control after about 3 weeks
In short: as §1

[9] = tested on: Echinochloa crus-galli (ECHCG); experiment: as above; conditions: visual scoring vs untreated control after about 3 weeks
In short: as §1

[10] = tested on: Bassia scoparia (KCHSC); experiment: as above; conditions: 320 g/ha, visual scoring vs untreated control after about 3 weeks
In short: as §1

[11] = tested on: Abutilon theophrasti (ABUTH); experiment: as above; conditions: visual scoring vs untreated control after about 3 weeks
In short: as §1

[12] = tested on: Veronica persica (VERPE); experiment: Post-emergence herbicidal efficacy at 80 g/ha, greenhouse pot test; conditions: visual rating vs untreated control after about 3 weeks
Experimental: (§2) Seeds of monocotyledonous and dicotyledonous weeds and crop plants were placed in sandy loam in plastic or organic planting pots, covered with soil and cultivated in a greenhouse under controlled growth conditions. 2 to 3 weeks after sowing, the test plants were treated at the one-leaf stage. The compounds of the invention, formulated in the form of wettable powders (WP) or as emulsion concentrates (EC), were then sprayed onto the green parts of the plants as aqueous suspension or emulsion with addition of 0.5% additive at a water application rate of 600 l/ha (converted). After the test plants had been kept in the greenhouse under optimum growth conditions for about 3 weeks, the activity of the preparations was rated visually in comparison to untreated controls. For example, 100% activity=the plants have died, 0% activity=like control plants. Tables B1 to B6 below show the effects of selected compounds of the general formula (I) according to Table 1 on various harmful plants and an application rate corresponding to 80 g/ha, which were obtained by the experimental procedure mentioned above.

[13] = tested on: Amaranthus retroflexus (AMARE); experiment: as above; conditions: visual rating vs untreated control after about 3 weeks
Experimental: as §2

[14] = tested on: Alopecurus myosuroides (ALOMY); experiment: as above; conditions: visual rating vs untreated control after about 3 weeks
Experimental: as §2

[15] = tested on: Polygonum convolvulus (POLCO); experiment: as above; conditions: visual rating vs untreated control after about 3 weeks
Experimental: as §2

[16] = tested on: Viola tricolor (VIOTR); experiment: as above; conditions: visual rating vs untreated control after about 3 weeks
Experimental: as §2

[17] = tested on: Veronica persica (VERPE); experiment: Post-emergence herbicidal efficacy at 320 g/ha, greenhouse pot test; conditions: 320 g/ha, visual rating vs untreated control after about 3 weeks
In short: (§3)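 Weeds sown in sandy loam and grown in greenhouse, sprayed at one-leaf stage (2–3 weeks after sowing) with WP or EC formulations plus 0.5% additive in 600 L/ha water. Visual activity rated after about 3 weeks against untreated controls (100% = plants dead, 0% = like control).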

[18] = tested on: Amaranthus retroflexus (AMARE); experiment: as above; conditions: visual rating vs untreated control after about 3 weeks
In short: as §3

[19] = tested on: Digitaria sanguinalis (DIGSA); experiment: as above; conditions: visual rating vs untreated control after about 3 weeks
In short: as §3

[20] = tested on: Poa annua (POAAN); experiment: as above; conditions: visual rating vs untreated control after about 3 weeks
In short: as §3

[21] = tested on: Stellaria media (STEME); experiment: as above; conditions: visual rating vs untreated control after about 3 weeks
In short: as §3

[22] = tested on: Bassia scoparia (KCHSC); experiment: as above; conditions: visual rating vs untreated control after about 3 weeks
In short: as §3

[23] = tested on: Abutilon theophrasti (ABUTH); experiment: as above; conditions: visual rating vs untreated control after about 3 weeks
In short: as §3

[24] = tested on: Veronica persica (VERPE); experiment: Pre-emergence herbicide efficacy at 80 g/ha, greenhouse pot test; conditions: visual scoring vs untreated control after about 3 weeks
Excerpt: (§4) Seeds of monocotyledonous and dicotyledonous weed plants and crop plants were placed in plastic or organic planting pots and covered with soil. The compounds of the invention, formulated in the form of wettable powders (WP) or as emulsion concentrates (EC), were then applied to the surface of the covering soil as aqueous suspension or emulsion with addition of 0.5% additive at a water application rate of […] (converted). After the treatment, the pots were placed in a greenhouse and kept under good growth conditions for the test plants. After about 3 weeks, the effect of the preparations was scored visually in comparison with untreated controls as percentages. For example, 100% activity=the plants have died, 0% activity=like control plants. Tables D1 to D12 below show the effects of selected compounds of the general formula (I) according to Table 1 on various harmful plants and an application rate corresponding to 80 g/ha, which were obtained by the experimental procedure mentioned above.

[25] = tested on: Amaranthus retroflexus (AMARE); experiment: as above; conditions: visual scoring vs untreated control after about 3 weeks
Excerpt: as §4

[26] = tested on: Digitaria sanguinalis (DIGSA); experiment: as above; conditions: visual scoring vs untreated control after about 3 weeks
Excerpt: as §4

[27] = tested on: Matricaria inodora (MATIN); experiment: as above; conditions: visual scoring vs untreated control after about 3 weeks
Excerpt: as §4

[28] = tested on: Polygonum convolvulus (POLCO); experiment: as above; conditions: visual scoring vs untreated control after about 3 weeks
Excerpt: as §4

[29] = tested on: Viola tricolor (VIOTR); experiment: as above; conditions: visual scoring vs untreated control after about 3 weeks
Excerpt: as §4

[30] = tested on: Alopecurus myosuroides (ALOMY); experiment: Post-emergence herbicidal efficacy at 320 g/ha, greenhouse pot test; conditions: visual rating vs untreated control after about 3 weeks
In short: as §3

[31] = tested on: Setaria viridis (SETVI); experiment: Pre-emergence herbicide efficacy at 80 g/ha, greenhouse pot test; conditions: visual scoring vs untreated control after about 3 weeks
Excerpt: as §4

[32] = tested on: Alopecurus myosuroides (ALOMY); experiment: as above; conditions: visual scoring vs untreated control after about 3 weeks
Excerpt: as §4

[33] = tested on: Abutilon theophrasti (ABUTH); experiment: as above; conditions: visual scoring vs untreated control after about 3 weeks
Excerpt: as §4

[34] = tested on: Lolium rigidum (LOLRI); experiment: Pre-emergence herbicide efficacy at 320 g/ha, greenhouse pot test; conditions: visual scoring vs untreated control after about 3 weeks
In short: as §1

## Cc1cc(C)c(-c2cc(C(F)F)on2)c(Oc2ncc(F)cn2)n1 [Example I-3]
[1]
  Pre-emergence efficacy against Veronica persica (VERPE): 100%
[2]
  Pre-emergence efficacy against Setaria viridis (SETVI): 100%
[3]
  Pre-emergence efficacy against Amaranthus retroflexus (AMARE): 100%
[4]
  Pre-emergence efficacy against Digitaria sanguinalis (DIGSA): 100%
[5]
  Pre-emergence efficacy against Poa annua (POAAN): 100%
[6]
  Pre-emergence efficacy against Alopecurus myosuroides (ALOMY): 100%
[7]
  Pre-emergence efficacy against Stellaria media (STEME): 100%
[8]
  Pre-emergence efficacy against Matricaria inodora (MATIN): 100%
[9]
  Pre-emergence efficacy against Echinochloa crus-galli (ECHCG): 100%
[10]
  Pre-emergence efficacy against Bassia scoparia (KCHSC): 100%
[11]
  Pre-emergence efficacy against Abutilon theophrasti (ABUTH): 100%
[12]
  Post-emergence efficacy against Veronica persica (VERPE): 80%
[13]
  Post-emergence efficacy against Amaranthus retroflexus (AMARE): 90%
[14]
  Post-emergence efficacy against Alopecurus myosuroides (ALOMY): 90%
[15]
  Post-emergence efficacy against Polygonum convolvulus (POLCO): 100%
[16]
  Post-emergence efficacy against Viola tricolor (VIOTR): 100%
[17]
  Post-emergence efficacy against Veronica persica (VERPE): 100%
[18]
  Post-emergence efficacy against Amaranthus retroflexus (AMARE): 90%
[19]
  Post-emergence efficacy against Digitaria sanguinalis (DIGSA): 90%
[20]
  Post-emergence efficacy against Poa annua (POAAN): 100%
[21]
  Post-emergence action against Stellaria media (STEME): 90%
[22]
  Post-emergence efficacy against Bassia scoparia (KCHSC): 100%
[23]
  Post-emergence efficacy against Abutilon theophrasti (ABUTH): 90%
[24]
  Pre-emergence efficacy against Veronica persica (VERPE): 80%
[25]
  Pre-emergence efficacy against Amaranthus retroflexus (AMARE): 100%
[26]
  Pre-emergence efficacy against Digitaria sanguinalis (DIGSA): 100%
[27]
  Pre-emergence efficacy against Matricaria inodora (MATIN): 100%
[28]
  Pre-emergence efficacy against Polygonum convolvulus (POLCO): 90%
[29]
  Pre-emergence efficacy against Viola tricolor (VIOTR): 100%

## Cc1cc(C)c(-c2cc(C(F)Cl)no2)c(Oc2ncc(Cl)cn2)n1 (stereo not shown) [Example I-5]
[1]
  Pre-emergence efficacy against Veronica persica (VERPE): 90%
[2]
  Pre-emergence efficacy against Setaria viridis (SETVI): 100%
[3]
  Pre-emergence efficacy against Amaranthus retroflexus (AMARE): 100%
[4]
  Pre-emergence efficacy against Digitaria sanguinalis (DIGSA): 100%
[5]
  Pre-emergence efficacy against Poa annua (POAAN): 100%
[6]
  Pre-emergence efficacy against Alopecurus myosuroides (ALOMY): 100%
[7]
  Pre-emergence efficacy against Stellaria media (STEME): 100%
[8]
  Pre-emergence efficacy against Matricaria inodora (MATIN): 100%
[9]
  Pre-emergence efficacy against Echinochloa crus-galli (ECHCG): 90%
[10]
  Pre-emergence efficacy against Bassia scoparia (KCHSC): 100%
[11]
  Pre-emergence efficacy against Abutilon theophrasti (ABUTH): 100%
[13]
  Post-emergence efficacy against Amaranthus retroflexus (AMARE): 100%
[14]
  Post-emergence efficacy against Alopecurus myosuroides (ALOMY): 80%
[16]
  Post-emergence efficacy against Viola tricolor (VIOTR): 80%
[17]
  Post-emergence efficacy against Veronica persica (VERPE): 100%
[18]
  Post-emergence efficacy against Amaranthus retroflexus (AMARE): 100%
[19]
  Post-emergence efficacy against Digitaria sanguinalis (DIGSA): 90%
[30]
  Post-emergence efficacy against Alopecurus myosuroides (ALOMY): 100%
[21]
  Post-emergence action against Stellaria media (STEME): 90%
[22]
  Post-emergence efficacy against Bassia scoparia (KCHSC): 90%
[24]
  Pre-emergence efficacy against Veronica persica (VERPE): 90%
[31]
  Pre-emergence efficacy against Setaria viridis (SETVI): 90%
[25]
  Pre-emergence efficacy against Amaranthus retroflexus (AMARE): 100%
[32]
  Pre-emergence efficacy against Alopecurus myosuroides (ALOMY): 90%
[27]
  Pre-emergence efficacy against Matricaria inodora (MATIN): 90%
[28]
  Pre-emergence efficacy against Polygonum convolvulus (POLCO): 90%
[29]
  Pre-emergence efficacy against Viola tricolor (VIOTR): 90%
[33]
  Pre-emergence efficacy against Abutilon theophrasti (ABUTH): 90%

## Cc1cc(C)c(-c2cc(C(F)(F)F)no2)c(Oc2ncc(Cl)cn2)n1 [Example I-2]
[1]
  Pre-emergence efficacy against Veronica persica (VERPE): 100%
[2]
  Pre-emergence efficacy against Setaria viridis (SETVI): 100%
[3]
  Pre-emergence efficacy against Amaranthus retroflexus (AMARE): 100%
[4]
  Pre-emergence efficacy against Digitaria sanguinalis (DIGSA): 100%
[5]
  Pre-emergence efficacy against Poa annua (POAAN): 100%
[6]
  Pre-emergence efficacy against Alopecurus myosuroides (ALOMY): 100%
[7]
  Pre-emergence efficacy against Stellaria media (STEME): 100%
[8]
  Pre-emergence efficacy against Matricaria inodora (MATIN): 100%
[34]
  Pre-emergence efficacy against Lolium rigidum (LOLRI): 90%
[9]
  Pre-emergence efficacy against Echinochloa crus-galli (ECHCG): 100%
[10]
  Pre-emergence efficacy against Bassia scoparia (KCHSC): 90%
[11]
  Pre-emergence efficacy against Abutilon theophrasti (ABUTH): 100%
[13]
  Post-emergence efficacy against Amaranthus retroflexus (AMARE): 100%
[14]
  Post-emergence efficacy against Alopecurus myosuroides (ALOMY): 90%
[16]
  Post-emergence efficacy against Viola tricolor (VIOTR): 90%
[17]
  Post-emergence efficacy against Veronica persica (VERPE): 100%
[18]
  Post-emergence efficacy against Amaranthus retroflexus (AMARE): 100%
[30]
  Post-emergence efficacy against Alopecurus myosuroides (ALOMY): 90%
[21]
  Post-emergence action against Stellaria media (STEME): 100%
[24]
  Pre-emergence efficacy against Veronica persica (VERPE): 90%
[25]
  Pre-emergence efficacy against Amaranthus retroflexus (AMARE): 100%
[32]
  Pre-emergence efficacy against Alopecurus myosuroides (ALOMY): 80%
[28]
  Pre-emergence efficacy against Polygonum convolvulus (POLCO): 80%
[29]
  Pre-emergence efficacy against Viola tricolor (VIOTR): 90%
[33]
  Pre-emergence efficacy against Abutilon theophrasti (ABUTH): 90%
